Data on 2 molecules can be found in patent US20130136766A1, “EFFECTIVE FRACTION FROM THE FRUITING BODIES OF GANODERMA LUCIDUM, EXTRACTION METHOD, USE AND PREPARATION THEREOF” (Shanghai University of Traditional Chinese Medicine, priority 2010, published 2013).

The test concerns STZ-induced type 2 diabetic model rats. The experiment in a line: Drug potency on STZ-induced type 2 diabetic model rats (fasting blood glucose). Format: in vivo. The protocol: The extract from Example 13 was trialed for its drug potency on STZ-induced type 2 diabetic model rats in Center for Drug Safety Evaluation, Shanghai University of Traditional Chinese Medicine.
FYGL was orally administered for various groups as: type 2 diabetes control group with saline 20 mL/kg; type 2 diabetes group with low dose of FYGL 50 mg/kg; type 2 diabetes group with high dose of FYGL 150 mg/kg; metformin group with metformin 200 mg/kg; rosiglitazone group with rosiglitazone 3 mg/kg. Numbers of rats in each group are 10.
The symbol # indicates significant difference of the fasting blood glucose level with p<0.05 and ## indicates very significant difference with p<0.01, referred to that of type 2 diabetes control group.

With `CN(C)C(=N)N=C(N)N` [Metformin, metformin], the fasting blood glucose by setting is: (10 days, metformin 200 mg/kg) 14 ± 4(#) mM; (20 days, metformin 200 mg/kg) 18 ± 5(#) mM; (30 days, metformin 200 mg/kg) 13 ± 2 (##) mM.

In the case of `CN(CCOc1ccc(CC2SC(=O)NC2=O)cc1)c1ccccn1` (stereo not drawn) [rosiglitazone], the fasting blood glucose is 14 ± 5(#) mM (10 days, rosiglitazone 3 mg/kg); 14 ± 4(#) mM (20 days, rosiglitazone 3 mg/kg); 12 ± 3 (##) mM (30 days, rosiglitazone 3 mg/kg).
